Laboratory results published in ChEMBL document CHEMBL1201862, “PubChem BioAssay data set” (2004).
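Grown in 96-well plates, cells were treated for 48 hours with each compound at five concentrations. Insufficient inhibition: endpoint recorded as highest concentration tested. GI50 = concentration required for 50% inhibition of growth.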 The source made the active and inactive calls. No stated cut-off is given here; in the data, active = GI50 up to about 1.1 µM and inactive = higher.

Legend:
Experiment in all cases: NCI tumour cell line growth inhibition, 48 h
HT-29 = system: HT-29
MOLT-4 = system: MOLT-4
T47D = system: T47D
UO-31 = system: UO-31
SK-MEL-5 = system: SK-MEL-5
OVCAR-4 = system: OVCAR-4
TK-10 = system: TK-10
HOP-92 = system: HOP-92
SF-268 = system: SF-268
A498 = system: A498
RXF 393 = system: RXF 393
DU-145 = system: DU-145
U-251 = system: U-251
NCI/ADR-RES = system: NCI/ADR-RES
HL-60 = system: HL-60
SW-620 = system: SW-620
SNB-75 = system: SNB-75
OVCAR-3 = system: OVCAR-3
ACHN = system: ACHN
KM12 = system: KM12

O=C(O)C1CCCN1C(=O)c1cc(Cl)ccn1 (stereo not given)
GI50 (HT-29): > 100 µM (inactive) | GI50 (MOLT-4): > 100 µM (inactive) | GI50 (T47D): > 100 µM (inactive) | GI50 (UO-31): > 100 µM (inactive) | GI50 (SK-MEL-5): > 100 µM (inactive) | GI50 (OVCAR-4): > 100 µM (inactive) | GI50 (TK-10): > 100 µM (inactive) | GI50 (HOP-92): > 100 µM (inactive) | GI50 (SF-268): > 100 µM (inactive) | GI50 (A498): > 100 µM (inactive) | GI50 (RXF 393): > 100 µM (inactive) | GI50 (DU-145): > 100 µM (inactive) | GI50 (U-251): > 100 µM (inactive) | GI50 (NCI/ADR-RES): > 100 µM (inactive) | GI50 (HL-60): > 100 µM (inactive) | GI50 (SW-620): > 100 µM (inactive) | GI50 (SNB-75): > 100 µM (inactive) | GI50 (OVCAR-3): > 100 µM (inactive) | GI50 (ACHN): > 100 µM (inactive) | GI50 (KM12): > 100 µM (inactive)

N#Cc1c(Cl)c2cc([N+](=O)[O-])ccc2n2c1nc1ccccc12
GI50 (HT-29): 4.46 µM (inactive) | GI50 (MOLT-4): 0.8 µM (active) | GI50 (T47D): 1.79 µM (inactive) | GI50 (UO-31): 2.58 µM (inactive) | GI50 (SK-MEL-5): 22.6 µM (inactive) | GI50 (OVCAR-4): 2.15 µM (inactive) | GI50 (TK-10): 3.81 µM (inactive) | GI50 (HOP-92): 2.77 µM (inactive) | GI50 (SF-268): 5.71 µM (inactive) | GI50 (A498): 25.6 µM (inactive) | GI50 (RXF 393): 2.38 µM (inactive) | GI50 (DU-145): 3.5 µM (inactive) | GI50 (U-251): 7.57 µM (inactive) | GI50 (NCI/ADR-RES): 5.07 µM (inactive) | GI50 (HL-60): 0.172 µM (active) | GI50 (SW-620): 2.26 µM (inactive) | GI50 (SNB-75): 8.81 µM (inactive) | GI50 (OVCAR-3): 6.76 µM (inactive) | GI50 (ACHN): 4.29 µM (inactive) | GI50 (KM12): 9.91 µM (inactive)

CCSc1cc(=O)n(C)c(=O)n1C
GI50 (HT-29): > 100 µM (inactive) | GI50 (MOLT-4): > 100 µM (inactive) | GI50 (T47D): > 100 µM (inactive) | GI50 (UO-31): > 100 µM (inactive) | GI50 (SK-MEL-5): > 100 µM (inactive) | GI50 (OVCAR-4): > 100 µM (inactive) | GI50 (TK-10): > 100 µM (inactive) | GI50 (HOP-92): > 100 µM (inactive) | GI50 (SF-268): > 100 µM (inactive) | GI50 (A498): > 100 µM (inactive) | GI50 (RXF 393): > 100 µM (inactive) | GI50 (DU-145): > 100 µM (inactive) | GI50 (U-251): > 100 µM (inactive) | GI50 (NCI/ADR-RES): > 100 µM (inactive) | GI50 (HL-60): > 100 µM (inactive) | GI50 (SW-620): > 100 µM (inactive) | GI50 (SNB-75): 42.7 µM (inactive) | GI50 (OVCAR-3): > 100 µM (inactive) | GI50 (ACHN): > 100 µM (inactive) | GI50 (KM12): > 100 µM (inactive)

CN1CCCN(C)C1c1cc([N+](=O)[O-])ccc1O
GI50 (HT-29): 33.8 µM (inactive) | GI50 (MOLT-4): 22.1 µM (inactive) | GI50 (T47D): 47.6 µM (inactive) | GI50 (UO-31): 0.436 µM (active) | GI50 (SK-MEL-5): 19.7 µM (inactive) | GI50 (OVCAR-4): 32 µM (inactive) | GI50 (TK-10): 56.1 µM (inactive) | GI50 (HOP-92): 20.2 µM (inactive) | GI50 (SF-268): 34.2 µM (inactive) | GI50 (A498): > 100 µM (inactive) | GI50 (RXF 393): 41.4 µM (inactive) | GI50 (DU-145): 36.9 µM (inactive) | GI50 (U-251): 26.5 µM (inactive) | GI50 (NCI/ADR-RES): 35.6 µM (inactive) | GI50 (HL-60): 21.5 µM (inactive) | GI50 (SW-620): 70.6 µM (inactive) | GI50 (SNB-75): 31.1 µM (inactive) | GI50 (OVCAR-3): 41.8 µM (inactive) | GI50 (ACHN): 20.9 µM (inactive) | GI50 (KM12): 36.6 µM (inactive)

COc1c(O)ccc(C2=Cc3ccc(O)cc3OC2)c1OC
GI50 (HT-29): 30.4 µM (inactive) | GI50 (MOLT-4): 6.82 µM (inactive) | GI50 (T47D): 25.6 µM (inactive) | GI50 (UO-31): 11.6 µM (inactive) | GI50 (SK-MEL-5): 16.1 µM (inactive) | GI50 (OVCAR-4): 23.9 µM (inactive) | GI50 (TK-10): 55.2 µM (inactive) | GI50 (HOP-92): 24 µM (inactive) | GI50 (SF-268): 20.2 µM (inactive) | GI50 (A498): 27.9 µM (inactive) | GI50 (RXF 393): 18.7 µM (inactive) | GI50 (DU-145): 26.7 µM (inactive) | GI50 (U-251): 26 µM (inactive) | GI50 (NCI/ADR-RES): 14.5 µM (inactive) | GI50 (HL-60): 2.82 µM (inactive) | GI50 (SW-620): 26.7 µM (inactive) | GI50 (SNB-75): 14.9 µM (inactive) | GI50 (OVCAR-3): 14.9 µM (inactive) | GI50 (ACHN): 6.56 µM (inactive) | GI50 (KM12): 7.33 µM (inactive)
